Measured values reported in patent US10844077B2, “Thiazolyl-containing compounds for treating proliferative diseases” (Dana-Farber Cancer Institute, Inc., priority 2014, dated 2020).
Like-named read-outs stand apart in the source and are kept apart here.

Tests used:
Type in all cases: binding
[1] = target: broad panel of kinases (Homo sapiens, UniProt O00506); conditions: YSK1; 1 μM
[2] = target: broad panel of kinases (Homo sapiens, UniProt Q04912); conditions: MST1R; 1 μM
[3] = target: broad panel of kinases (Homo sapiens, UniProt P51812); conditions: 1 μM
[4] = target: broad panel of kinases (Homo sapiens, UniProt P08581, M1250T); conditions: MET(M1250T); 1 μM
Sequence of broad panel of kinases (Homo sapiens, UniProt P08581, M1250T) (P08581 25-1390 M1250T limits assumed): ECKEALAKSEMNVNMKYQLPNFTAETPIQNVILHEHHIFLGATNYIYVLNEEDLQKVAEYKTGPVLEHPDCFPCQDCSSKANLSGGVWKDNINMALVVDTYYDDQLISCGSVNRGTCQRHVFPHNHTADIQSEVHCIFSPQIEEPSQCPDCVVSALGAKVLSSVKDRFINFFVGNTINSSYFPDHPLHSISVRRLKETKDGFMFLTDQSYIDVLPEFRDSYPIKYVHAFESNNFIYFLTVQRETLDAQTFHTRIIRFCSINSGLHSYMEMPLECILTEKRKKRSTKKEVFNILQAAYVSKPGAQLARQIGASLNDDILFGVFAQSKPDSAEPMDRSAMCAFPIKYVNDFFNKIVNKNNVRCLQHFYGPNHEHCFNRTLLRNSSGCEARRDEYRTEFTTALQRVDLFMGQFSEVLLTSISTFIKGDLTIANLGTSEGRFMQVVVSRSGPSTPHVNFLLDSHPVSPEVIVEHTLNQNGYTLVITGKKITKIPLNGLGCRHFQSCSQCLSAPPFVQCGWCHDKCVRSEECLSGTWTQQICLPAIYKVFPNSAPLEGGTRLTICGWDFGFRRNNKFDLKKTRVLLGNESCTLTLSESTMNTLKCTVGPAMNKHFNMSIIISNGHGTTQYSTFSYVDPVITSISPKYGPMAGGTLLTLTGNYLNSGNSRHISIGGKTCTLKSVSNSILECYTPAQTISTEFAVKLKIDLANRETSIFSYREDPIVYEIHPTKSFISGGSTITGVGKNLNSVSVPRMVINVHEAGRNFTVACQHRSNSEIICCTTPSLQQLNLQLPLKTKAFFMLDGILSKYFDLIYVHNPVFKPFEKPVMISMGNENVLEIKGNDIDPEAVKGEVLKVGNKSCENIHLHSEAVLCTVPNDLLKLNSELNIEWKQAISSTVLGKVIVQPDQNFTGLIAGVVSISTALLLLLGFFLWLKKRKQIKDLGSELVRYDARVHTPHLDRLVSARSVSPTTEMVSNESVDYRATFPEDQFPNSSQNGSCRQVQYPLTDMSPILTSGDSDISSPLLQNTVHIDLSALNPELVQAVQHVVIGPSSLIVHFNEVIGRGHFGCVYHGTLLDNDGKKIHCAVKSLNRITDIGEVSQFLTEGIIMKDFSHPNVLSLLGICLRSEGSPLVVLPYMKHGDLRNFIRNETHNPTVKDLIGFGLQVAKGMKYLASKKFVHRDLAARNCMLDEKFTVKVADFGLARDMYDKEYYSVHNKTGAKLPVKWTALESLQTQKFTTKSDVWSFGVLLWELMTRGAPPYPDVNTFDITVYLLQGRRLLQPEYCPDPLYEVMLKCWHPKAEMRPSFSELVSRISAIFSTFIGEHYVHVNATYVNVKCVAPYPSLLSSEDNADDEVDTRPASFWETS

[5] = target: broad panel of kinases (Homo sapiens, UniProt P42679); conditions: CTK; 1 μM
[6] = target: broad panel of kinases (Homo sapiens, UniProt Q13188); conditions: MST2; 1 μM
[7] = target: broad panel of kinases (Homo sapiens, UniProt P11362); conditions: FGFR1; 1 μM
Sequence of broad panel of kinases (Homo sapiens, UniProt P11362) (P11362 22-822 limits assumed): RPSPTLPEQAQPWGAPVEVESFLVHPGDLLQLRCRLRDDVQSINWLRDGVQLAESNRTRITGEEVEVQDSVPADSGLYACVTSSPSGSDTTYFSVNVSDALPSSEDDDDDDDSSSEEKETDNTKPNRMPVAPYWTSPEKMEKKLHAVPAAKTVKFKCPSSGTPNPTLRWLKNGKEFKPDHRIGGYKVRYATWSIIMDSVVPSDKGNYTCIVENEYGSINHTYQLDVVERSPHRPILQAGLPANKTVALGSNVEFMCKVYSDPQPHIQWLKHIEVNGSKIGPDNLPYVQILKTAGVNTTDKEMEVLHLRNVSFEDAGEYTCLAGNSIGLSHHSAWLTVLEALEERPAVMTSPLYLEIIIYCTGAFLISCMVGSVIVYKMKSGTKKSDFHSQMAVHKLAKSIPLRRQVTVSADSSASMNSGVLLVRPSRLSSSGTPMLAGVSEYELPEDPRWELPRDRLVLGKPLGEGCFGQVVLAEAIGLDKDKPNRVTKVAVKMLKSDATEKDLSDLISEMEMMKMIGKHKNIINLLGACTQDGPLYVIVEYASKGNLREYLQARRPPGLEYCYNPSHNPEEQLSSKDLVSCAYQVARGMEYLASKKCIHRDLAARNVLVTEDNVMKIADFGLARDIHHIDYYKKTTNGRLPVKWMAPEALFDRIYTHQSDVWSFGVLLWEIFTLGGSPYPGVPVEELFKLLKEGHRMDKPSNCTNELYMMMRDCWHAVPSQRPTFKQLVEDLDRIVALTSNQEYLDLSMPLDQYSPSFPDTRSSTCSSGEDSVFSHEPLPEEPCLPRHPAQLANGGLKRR

[8] = target: broad panel of kinases (Homo sapiens, UniProt P11309); conditions: P1M1 (PIM1); 1 μM
[9] = target: broad panel of kinases (Homo sapiens, UniProt O43683); conditions: BUB1; 1 μM
[10] = target: broad panel of kinases (Homo sapiens, UniProt Q96PY6); conditions: NEK1; 1 μM
[11] = target: broad panel of kinases (Homo sapiens, UniProt P36507); conditions: MEK2; 1 μM
[12] = target: broad panel of kinases (Homo sapiens, UniProt P41743); conditions: PRKCI; 1 μM
Sequence of broad panel of kinases (Homo sapiens, UniProt P41743) (P41743 2-596 limits assumed): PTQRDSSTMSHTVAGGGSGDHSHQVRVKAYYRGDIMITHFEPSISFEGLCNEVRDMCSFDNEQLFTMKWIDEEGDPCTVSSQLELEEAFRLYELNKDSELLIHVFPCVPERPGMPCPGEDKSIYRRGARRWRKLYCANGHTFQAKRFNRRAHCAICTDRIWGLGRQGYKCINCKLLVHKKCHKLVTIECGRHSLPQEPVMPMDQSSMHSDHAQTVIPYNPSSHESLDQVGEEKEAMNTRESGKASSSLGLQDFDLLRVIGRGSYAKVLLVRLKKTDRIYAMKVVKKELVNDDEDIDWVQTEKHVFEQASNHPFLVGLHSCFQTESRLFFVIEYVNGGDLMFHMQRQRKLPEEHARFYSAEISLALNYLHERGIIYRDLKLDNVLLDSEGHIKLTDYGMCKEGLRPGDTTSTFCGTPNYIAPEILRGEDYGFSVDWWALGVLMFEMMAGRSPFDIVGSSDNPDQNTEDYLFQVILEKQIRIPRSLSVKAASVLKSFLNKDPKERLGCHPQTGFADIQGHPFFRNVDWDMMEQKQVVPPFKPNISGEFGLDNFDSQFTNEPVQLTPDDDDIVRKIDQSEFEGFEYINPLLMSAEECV

[13] = target: broad panel of kinases (Homo sapiens, UniProt Q9NWZ3); conditions: IRAK4; 1 μM
[14] = target: broad panel of kinases (Homo sapiens, UniProt O60331); conditions: PIP5K1C; 1 μM
[15] = target: broad panel of kinases (Homo sapiens, UniProt O15111); conditions: IKK-alpha; 1 μM
[16] = target: broad panel of kinases (Homo sapiens, UniProt P10721, D816V); conditions: KIT(D816V); 1 μM
[17] = target: broad panel of kinases (Homo sapiens, UniProt Q96L34); conditions: MARK4; 1 μM
[18] = target: broad panel of kinases (Homo sapiens, UniProt Q9UKE5); conditions: TNIK; 1 μM
[19] = target: broad panel of kinases (Homo sapiens, UniProt P29317); conditions: EPHA2; 1 μM
[20] = target: broad panel of kinases (Homo sapiens, UniProt O95747); conditions: OSR1; 1 μM
Sequence of broad panel of kinases (Homo sapiens, UniProt O95747) (O95747 2-527 limits assumed): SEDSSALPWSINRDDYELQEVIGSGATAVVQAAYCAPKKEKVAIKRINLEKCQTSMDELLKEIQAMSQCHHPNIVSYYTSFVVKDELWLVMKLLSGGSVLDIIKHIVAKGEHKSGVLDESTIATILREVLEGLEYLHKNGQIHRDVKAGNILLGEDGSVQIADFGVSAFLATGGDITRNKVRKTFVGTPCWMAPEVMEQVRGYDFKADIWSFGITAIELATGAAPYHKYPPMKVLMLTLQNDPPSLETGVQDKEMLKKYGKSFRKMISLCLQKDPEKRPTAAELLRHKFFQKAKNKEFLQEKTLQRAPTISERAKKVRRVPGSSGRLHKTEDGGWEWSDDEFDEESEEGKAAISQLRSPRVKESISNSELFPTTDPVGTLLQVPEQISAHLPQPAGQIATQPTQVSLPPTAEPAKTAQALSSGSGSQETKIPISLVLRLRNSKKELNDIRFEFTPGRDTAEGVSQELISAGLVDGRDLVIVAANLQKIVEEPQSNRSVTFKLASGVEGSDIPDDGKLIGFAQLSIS

[21] = target: broad panel of kinases (Homo sapiens, UniProt P00533, G719C); conditions: EGFR(G719C); 1 μM
[22] = target: broad panel of kinases (Homo sapiens, UniProt Q96RR4); conditions: CAMKK2; 1 μM
Sequence of broad panel of kinases (Homo sapiens, UniProt Q96RR4) (Q96RR4 2-588 limits assumed): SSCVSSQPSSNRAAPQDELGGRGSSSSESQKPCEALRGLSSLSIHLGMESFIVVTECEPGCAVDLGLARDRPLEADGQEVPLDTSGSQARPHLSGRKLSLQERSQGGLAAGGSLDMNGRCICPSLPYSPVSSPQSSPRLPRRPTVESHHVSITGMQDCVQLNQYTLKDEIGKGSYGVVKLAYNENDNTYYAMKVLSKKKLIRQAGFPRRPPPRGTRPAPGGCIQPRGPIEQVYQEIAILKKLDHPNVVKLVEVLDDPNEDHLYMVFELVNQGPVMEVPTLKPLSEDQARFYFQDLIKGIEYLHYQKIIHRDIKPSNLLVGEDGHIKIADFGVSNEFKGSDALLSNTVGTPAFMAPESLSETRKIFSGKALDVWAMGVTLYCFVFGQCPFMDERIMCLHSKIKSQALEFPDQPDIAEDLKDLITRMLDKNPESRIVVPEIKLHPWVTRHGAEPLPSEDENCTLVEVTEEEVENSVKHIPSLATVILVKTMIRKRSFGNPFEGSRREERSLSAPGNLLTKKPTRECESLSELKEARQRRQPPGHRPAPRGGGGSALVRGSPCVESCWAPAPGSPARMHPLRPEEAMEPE

[23] = target: broad panel of kinases (Homo sapiens, UniProt O15146); conditions: MUSK; 1 μM
[24] = target: broad panel of kinases (Homo sapiens, UniProt Q8TBX8); conditions: PIP5K2C; 1 μM
Sequence of broad panel of kinases (Homo sapiens, UniProt Q8TBX8) (Q8TBX8 2-421 limits assumed): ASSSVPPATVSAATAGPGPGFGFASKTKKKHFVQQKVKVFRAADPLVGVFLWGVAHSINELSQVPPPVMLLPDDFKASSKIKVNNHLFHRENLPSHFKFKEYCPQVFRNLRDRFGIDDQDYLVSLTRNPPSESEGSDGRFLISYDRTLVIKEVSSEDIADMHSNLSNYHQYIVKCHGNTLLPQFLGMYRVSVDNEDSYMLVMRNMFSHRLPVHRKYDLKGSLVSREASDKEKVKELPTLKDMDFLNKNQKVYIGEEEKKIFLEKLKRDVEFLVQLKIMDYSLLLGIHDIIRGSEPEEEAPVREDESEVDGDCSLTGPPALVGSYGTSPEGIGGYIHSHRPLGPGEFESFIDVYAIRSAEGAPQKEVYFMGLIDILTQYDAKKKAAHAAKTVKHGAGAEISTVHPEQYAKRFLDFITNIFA

[25] = target: broad panel of kinases (Homo sapiens, UniProt P15735); conditions: PHKG2; 1 μM
[26] = target: broad panel of kinases (Homo sapiens, UniProt P30530); conditions: AXL; 1 μM
[27] = target: broad panel of kinases (Homo sapiens, UniProt P00533, DEL752-759); conditions: EGFR(S752-I759del); 1 μM
[28] = target: broad panel of kinases (Homo sapiens, UniProt Q9NYL2); conditions: ZAK; 1 μM
[29] = target: broad panel of kinases (Homo sapiens, UniProt Q99558); conditions: NIK; 1 μM
[30] = target: broad panel of kinases (Homo sapiens, UniProt P16591); conditions: FER; 1 μM
[31] = target: broad panel of kinases (Homo sapiens, UniProt P07949, V804L); conditions: RET(V804L); 1 μM
[32] = target: broad panel of kinases (Homo sapiens, UniProt P68400); conditions: CSNK2A1; 1 μM
[33] = target: broad panel of kinases (Homo sapiens, UniProt Q86UE8); conditions: TLK2; 1 μM
[34] = target: broad panel of kinases (Homo sapiens, UniProt Q8WXR4); conditions: MYO3B; 1 μM
[35] = target: broad panel of kinases (Homo sapiens, UniProt P21127); conditions: CDC2L1; 1 μM
[36] = target: broad panel of kinases (Homo sapiens, UniProt O00238); conditions: BMPR1B; 1 μM
Sequence of broad panel of kinases (Homo sapiens, UniProt O00238) (O00238 14-502 limits assumed): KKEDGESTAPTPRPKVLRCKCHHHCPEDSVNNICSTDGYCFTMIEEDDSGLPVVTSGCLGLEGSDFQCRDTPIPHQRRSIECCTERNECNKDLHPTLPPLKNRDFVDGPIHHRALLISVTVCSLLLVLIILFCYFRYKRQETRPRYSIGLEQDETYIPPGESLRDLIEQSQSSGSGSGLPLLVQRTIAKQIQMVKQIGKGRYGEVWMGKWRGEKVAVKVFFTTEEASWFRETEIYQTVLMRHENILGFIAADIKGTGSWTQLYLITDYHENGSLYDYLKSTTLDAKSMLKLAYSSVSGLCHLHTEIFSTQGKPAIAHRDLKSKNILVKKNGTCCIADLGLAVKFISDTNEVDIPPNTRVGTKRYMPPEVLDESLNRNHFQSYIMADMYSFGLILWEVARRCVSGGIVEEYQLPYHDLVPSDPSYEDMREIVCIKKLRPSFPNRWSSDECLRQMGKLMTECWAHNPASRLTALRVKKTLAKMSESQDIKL

[37] = target: broad panel of kinases (Homo sapiens, UniProt Q04759); conditions: PRKCQ; 1 μM

SMILES | percent of control binding remaining (lower = stronger binding) [1] [%] | percent of control binding remaining (lower = stronger binding) [2] [%] | percent of control binding remaining (lower = stronger binding) ([3]; RSK2(Kin.Dom.1-N-terminal)) [%] | percent of control binding remaining (lower = stronger binding) ([3]; RSK2(Kin.Dom.2-C-terminal)) [%] | percent of control binding remaining (lower = stronger binding) [4] [%] | percent of control binding remaining (lower = stronger binding) [5] [%] | percent of control binding remaining (lower = stronger binding) [6] [%] | percent of control binding remaining (lower = stronger binding) [7] [%] | percent of control binding remaining (lower = stronger binding) [8] [%] | percent of control binding remaining (lower = stronger binding) [9] [%] | percent of control binding remaining (lower = stronger binding) [10] [%] | percent of control binding remaining (lower = stronger binding) [11] [%] | percent of control binding remaining (lower = stronger binding) [12] [%] | percent of control binding remaining (lower = stronger binding) [13] [%] | percent of control binding remaining (lower = stronger binding) [14] [%] | percent of control binding remaining (lower = stronger binding) [15] [%] | percent of control binding remaining (lower = stronger binding) [16] [%] | percent of control binding remaining (lower = stronger binding) [17] [%] | percent of control binding remaining (lower = stronger binding) [18] [%] | percent of control binding remaining (lower = stronger binding) [19] [%] | further results
C=CC(=O)N1CC[C@H](Nc2nc(CN3CCOCC3)cc(Nc3ncc(C(=O)Nc4c(C)cccc4C)s3)n2)C1 [Example I-2] | 85 | 99 | 95 | 100 | 100 | 67 | 69 | 91 | 97 | 85 | 88 | 78 | 94 | 76 | 99 | 93 | 1.7 | 91 | 97 | 0.2 | percent of control binding remaining (lower = stronger binding) [20]: 81%; percent of control binding remaining (lower = stronger binding) [21]: 23%; percent of control binding remaining (lower = stronger binding) [22]: 97%; percent of control binding remaining (lower = stronger binding) [23]: 98%; percent of control binding remaining (lower = stronger binding) [24]: 100%; percent of control binding remaining (lower = stronger binding) [25]: 96%; percent of control binding remaining (lower = stronger binding) [26]: 96%; percent of control binding remaining (lower = stronger binding) [27]: 17%; percent of control binding remaining (lower = stronger binding) [28]: 87%; percent of control binding remaining (lower = stronger binding) [29]: 91%; percent of control binding remaining (lower = stronger binding) [30]: 100%; percent of control binding remaining (lower = stronger binding) [31]: 98%; percent of control binding remaining (lower = stronger binding) [32]: 90%; percent of control binding remaining (lower = stronger binding) [33]: 97%; percent of control binding remaining (lower = stronger binding) [34]: 93%; percent of control binding remaining (lower = stronger binding) [35]: 88%; percent of control binding remaining (lower = stronger binding) [36]: 10%; percent of control binding remaining (lower = stronger binding) [37]: 94%
C=CC(=O)N1CC[C@H](Nc2nccc(Nc3ncc(C(=O)Nc4c(C)cccc4C)s3)n2)C1 [Example I-3] | 87 | 100 | 97 | 100 | 100 | 81 | 94 | 93 | 95 | 68 | 85 | 100 | 90 | 96 | 65 | 100 | 14 | 80 | 93 | 0.6 | percent of control binding remaining (lower = stronger binding) [20]: 98%; percent of control binding remaining (lower = stronger binding) [21]: 14%; percent of control binding remaining (lower = stronger binding) [22]: 100%; percent of control binding remaining (lower = stronger binding) [23]: 100%; percent of control binding remaining (lower = stronger binding) [24]: 100%; percent of control binding remaining (lower = stronger binding) [25]: 94%; % change compared to control [26]: 76%; percent of control binding remaining (lower = stronger binding) [27]: 4.6%; percent of control binding remaining (lower = stronger binding) [28]: 94%; percent of control binding remaining (lower = stronger binding) [29]: 84%; percent of control binding remaining (lower = stronger binding) [30]: 99%; percent of control binding remaining (lower = stronger binding) [31]: 100%; percent of control binding remaining (lower = stronger binding) [32]: 98%; percent of control binding remaining (lower = stronger binding) [33]: 94%; percent of control binding remaining (lower = stronger binding) [34]: 86%; percent of control binding remaining (lower = stronger binding) [35]: 78%; percent of control binding remaining (lower = stronger binding) [36]: 45%; percent of control binding remaining (lower = stronger binding) [37]: 98%
